Test results from US9688702B2, “Alpha-amino boronic acid derivatives, selective immunoproteasome inhibitors” (Ares Trading S.A, priority 2011, dated 2017).
pIC50: −log10 of the molar value.

What was measured:
[1] = molecular target: LMP7 (purified human immuno proteasome) (Homo sapiens, UniProt P28062); assay: Determination of LMP7 activity (fluorescence intensity assay, Suc-LLVY-AMC); type: biochemical; conditions: for pIC50: 40 μM Suc-LLVY-AMC, 37° C.
Procedure, shortened: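 Purified human immunoproteasome (0.5 nM or 0.25 nM) preincubated 30 min at 37 °C with compounds (10 μM to 38 pM) in 50 mM Tris pH 7.4, 0.03% SDS. Suc-LLVY-AMC added at 40 μM; after 90 min at 37 °C, fluorescence read at ex 350/em 450 nm.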

[2] = molecular target: Beta5 (purified human constitutive proteasome) (Homo sapiens, UniProt P28074); assay: Determination of Beta5 activity (fluorescence intensity assay, Suc-LLVY-AMC); type: biochemical; conditions: purified human constitutive proteasome 1.0 nM, 40 μM Suc-LLVY-AMC, 37° C.
Procedure, shortened: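 Purified human constitutive proteasome (1.0 nM) was preincubated 30 min at 37 °C with compounds (10 μM to 38 pM) in 50 mM Tris pH 7.4, 0.03% SDS. Suc-LLVY-AMC (40 μM) was then added and fluorescence (ex 350/em 450 nm) read after 90 min at 37 °C.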

[3] = purified human immuno proteasome 0.5 nM
[4] = purified human immuno proteasome 0.25 nM (examples 79, 80, 83, 84, 85, 87, 88, 89, 90, 91, 93, 94, 96, 97, 101 and 110)

Structure (SMILES)	Selectivity LMP7 vs Beta5 [1]	pIC50 [1, 3]	pIC50 [2]	pIC50 [1, 4]
CCc1cccc(C[C@H](NC(=O)CCC(=O)c2ccccc2OC)B(O)O)c1 [Example 8, ((1R)-2-(3-ethylphenyl)-1-{[4-(2-methoxyphenyl)-4-oxobutanoyl]amino}ethyl)boronic acid]		6.30 to 7.30	< 5.30	
O=C(CCC(=O)c1ccc(-c2ccccc2)cc1)N[C@@H](Cc1ccsc1)B(O)O [Example 20, [(1R)-1-[(4-biphenyl-4-yl-4-oxobutanoyl)amino]-2-(3-thienyl)ethyl]boronic acid]	+ (+: Selectivity < 10)	6.30 to 7.30	5.30 to 6.30	
COc1ccc(C(=O)CC(Cc2ccccc2)C(=O)N[C@@H](Cc2cccc(C(F)(F)F)c2)B(O)O)cc1 (mixture of isomers) [Example 27, {(1R)-1-{[2-(RS)-benzyl-4-(4-methoxyphenyl)-4-oxobutanoyl]amino}-2-[3-(trifluoromethyl)phenyl]ethyl}boronic acid]	+++ (+++: Selectivity > 30)	> 7.30	5.30 to 6.30	
CCc1cccc(C[C@H](NC(=O)CCC(=O)c2ccc3ccccc3c2)B(O)O)c1 [Example 18, ((1R)-2-(3-ethylphenyl)-1-{[4-(2-naphthyl)-4-oxobutanoyl]amino}ethyl)boronic acid]	+++ (+++: Selectivity > 30)	6.30 to 7.30	5.30 to 6.30	
COc1cc(F)cc(C[C@H](NC(=O)CCc2noc(-c3ccccc3)n2)B(O)O)c1 [Example 61, (R)-(2-(3-fluoro-5-methoxyphenyl)-1-(3-(5-phenyl-1,2,4-oxadiazol-3-yl)propanamido)ethyl)boronic acid]	+++ (+++: Selectivity > 30)	> 7.30	5.30 to 6.30	
COc1ccc(C(=O)CCC(=O)N[C@@H](Cc2cccc(OC(F)(F)F)c2)B(O)O)cc1 [Example 48, (R)-(1-(4-(4-methoxyphenyl)-4-oxobutanamido)-2-(3-(trifluoromethoxy)phenyl)ethyl)boronic acid]	++ (++: 10 < Selectivity < 30)	6.30 to 7.30	5.30 to 6.30	

Second part, the compound after the results:

Selectivity LMP7 vs Beta5 [1]	pIC50 [1, 3]	pIC50 [2]	pIC50 [1, 4]	Structure (SMILES)
++ (++: 10 < Selectivity < 30)	> 7.30	> 7.30		O=C(CCc1ccccc1F)N[C@@H](Cc1coc2ccccc12)B(O)O [Example 81, (R)-(2-(benzofuran-3-yl)-1-(3-(2-fluorophenyl)propanamido)ethyl) boronic acid]
+ (+: Selectivity < 10)	6.30 to 7.30	5.30 to 6.30		COc1cc(C[C@H](NC(=O)CCn2cnc3ccccc32)B(O)O)ccc1F [Example 69, (R)-(1-(3-(1H-benzo[d]imidazol-1-yl)propanamido)-2-(4-fluoro-3-methoxyphenyl)ethyl)boronic acid]
+++ (+++: Selectivity > 30)		> 7.30	> 7.30	COc1ccc(-n2cc(CCC(=O)N[C@@H](Cc3coc4ccccc34)B(O)O)nn2)cc1 [Example 90, (R)-(2-(benzofuran-3-yl)-1-(3-(1-(4-methoxyphenyl)-1H-1,2,3-triazol-4-yl)propanamido)ethyl)boronic acid]
+ (+: Selectivity < 10)	> 7.30	6.30 to 7.30		Cc1nc2ccccc2n1CCC(=O)N[C@@H](Cc1ccsc1)B(O)O [Example 55, (R)-(1-(3-(2-methyl-1H-benzo[d]imidazol-1-yl)propanamido)-2-(thiophen-3-yl)ethyl)boronic acid]
+++ (+++: Selectivity > 30)		> 7.30	> 7.30	O=C(CCc1ccc(F)cc1)N[C@@H](Cc1coc2ccccc12)B(O)O [Example 80, (R)-(2-(benzofuran-3-yl)-1-(3-(4-fluorophenyl)propanamido)ethyl) boronic acid]
++ (++: 10 < Selectivity < 30)	> 7.30	6.30 to 7.30		CCOc1cccc(C[C@H](NC(=O)CCn2cnc3ccccc32)B(O)O)c1 [Example 67, (R)-(1-(3-(1H-benzo[d]imidazol-1-yl)propanamido)-2-(3-ethoxyphenyl)ethyl)boronic acid]
++ (++: 10 < Selectivity < 30)	> 7.30	6.30 to 7.30		O=C(CCn1cnc2ccccc21)N[C@@H](Cc1ccc(F)c(C(F)(F)F)c1)B(O)O [Example 64, (R)-(1-(3-(1H-benzo[d]imidazol-1-yl)propanamido)-2-(4-fluoro-3-(trifluoromethyl)phenyl)ethyl)boronic acid]
